Assay results reported in patent US20220220128A1, “HETEROCYCLIC COMPOUNDS AS KINASE INHIBITORS, COMPOSITIONS COMPRISING THE HETEROCYCLIC COMPOUND, AND METHODS OF USE THEREOF” (JS Innopharm (Shanghai) Ltd, priority 2019, published 2022).

Legend:
[1] = target: T1, human RET kinase (Homo sapiens, UniProt P07949); test: RET Kinase Assay (LanthaScreen TR-FRET enzymatic assay); assay type: biochemical; conditions: 7 nM RET, 23 μM ATP
T1 construct: purchased Carna 08-159
Method: Compounds were tested in a LanthaScreen™ time-resolved fluorescence energy transfer (TR-FRET) enzymatic assay from Invitrogen. The assay used human RET kinase (Carna 08-159). Test compounds were prepared and diluted in DMSO in 3-fold serial dilutions to 50× of the final testing concentrations. The compounds were then further diluted to 5× by the kinase reaction buffer (50 mM HEPES pH 7.5, 0.0015% Brij-35). The enzymatic reaction for compound testing was performed in a white 384-well polypropylene plate (Corning 3573) with a total reaction volume of 25 μl containing 7 nM RET, 3 μM peptide substrate FAM-P2 (GL Biochem 112394), and 23 μM ATP (Sigma A7699-1G). The assay started with loading RET diluted in kinase reaction buffer to wells, followed by addition of equal volume of 5× compounds for 15-min incubation at the room temperature for pre-treatment. The enzymatic reaction was initiated by addition of mixture of the substrate and ATP prepared in kinase reaction buffer. After incubation at 28° C. for one hour, 25 μl of stopper buffer (a mixture of 100 mM HEPES pH 7.5 buffer, 0.015% Brij-35, 50 mM EDTA and 0.2% of coating reagent 3 (Cliper Lifesciences)) and produce TR-FRET signals. After 30 minutes of incubation at room temperature, the plate was read in a Caliper with the following settings: Excitation 340 nm (30)/Emission1 495 nm (10)/Emission2 520 nm (25). The TR-FRET values were dimensionless numbers that were calculated as the ratio of the acceptor ([…]) signal to the donor (Terbium) signal. Percent of control was calculated as the percentage of compound-treated vs 1% DMSO vehicle-treated. The dose-response curves were generated and the IC50s were calculated by nonlinear sigmoid curve fitting using XLFit.

[2] = target: T2, human KDR kinase (Homo sapiens, UniProt P35968); test: KDR Kinase Assay (LanthaScreen TR-FRET enzymatic assay); assay type: biochemical; conditions: 1.2 nM KDR, 92 μM ATP
T2 construct: purchased Carna 08-191
T2 sequence (P35968 20-1356): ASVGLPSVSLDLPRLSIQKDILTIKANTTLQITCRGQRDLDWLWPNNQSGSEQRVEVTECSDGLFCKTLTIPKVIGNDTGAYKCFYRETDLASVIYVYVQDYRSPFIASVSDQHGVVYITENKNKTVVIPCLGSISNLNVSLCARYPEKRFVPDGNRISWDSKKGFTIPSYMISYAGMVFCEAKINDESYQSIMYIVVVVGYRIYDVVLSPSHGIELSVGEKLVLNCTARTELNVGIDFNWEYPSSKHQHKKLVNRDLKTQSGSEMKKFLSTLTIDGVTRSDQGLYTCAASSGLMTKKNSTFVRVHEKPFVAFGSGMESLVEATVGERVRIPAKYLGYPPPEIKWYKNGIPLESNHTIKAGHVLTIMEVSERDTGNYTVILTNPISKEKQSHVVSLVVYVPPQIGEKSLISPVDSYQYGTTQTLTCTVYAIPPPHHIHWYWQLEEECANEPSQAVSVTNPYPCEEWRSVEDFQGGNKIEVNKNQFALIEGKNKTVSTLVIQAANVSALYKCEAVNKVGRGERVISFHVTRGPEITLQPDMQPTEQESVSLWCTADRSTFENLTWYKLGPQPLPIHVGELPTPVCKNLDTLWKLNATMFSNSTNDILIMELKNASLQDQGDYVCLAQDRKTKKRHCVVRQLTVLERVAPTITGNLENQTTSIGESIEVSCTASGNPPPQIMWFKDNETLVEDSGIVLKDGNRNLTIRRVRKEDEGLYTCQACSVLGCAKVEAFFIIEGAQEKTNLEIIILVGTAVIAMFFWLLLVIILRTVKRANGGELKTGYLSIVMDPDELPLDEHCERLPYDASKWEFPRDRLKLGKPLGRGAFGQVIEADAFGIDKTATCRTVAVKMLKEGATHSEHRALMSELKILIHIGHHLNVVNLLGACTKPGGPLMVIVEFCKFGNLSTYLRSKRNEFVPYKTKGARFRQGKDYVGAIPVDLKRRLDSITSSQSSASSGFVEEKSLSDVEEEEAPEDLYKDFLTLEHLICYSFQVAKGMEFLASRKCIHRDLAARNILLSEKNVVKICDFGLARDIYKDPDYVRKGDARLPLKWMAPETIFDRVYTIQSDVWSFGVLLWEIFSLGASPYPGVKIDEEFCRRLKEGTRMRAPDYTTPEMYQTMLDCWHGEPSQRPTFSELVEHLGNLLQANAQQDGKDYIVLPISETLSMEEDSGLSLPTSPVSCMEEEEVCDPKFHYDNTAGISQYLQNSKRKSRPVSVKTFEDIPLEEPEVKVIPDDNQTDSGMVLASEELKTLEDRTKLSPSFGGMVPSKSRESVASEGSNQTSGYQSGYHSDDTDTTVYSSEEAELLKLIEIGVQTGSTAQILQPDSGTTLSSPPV
Method: Compounds were tested in a LanthaScreen™ time-resolved fluorescence energy transfer (TR-FRET) enzymatic assay from Invitrogen. The assay used human KDR kinase (Carna 08-191). Test compounds were prepared and diluted in DMSO in 3-fold serial dilutions to 50× of the final testing concentrations. The compounds were then further diluted to 5× by the kinase reaction buffer (50 mM HEPES pH 7.5, 0.0015% Brij-35). The enzymatic reaction for compound testing was performed in a white 384-well polypropylene plate (Corning 3573) with a total reaction volume of 25 μl containing 1.2 nM KDR, 3 μM peptide substrate FAM-P22 (GL Biochem 112393), and 92 μM ATP (Sigma A7699-1G). The assay started with loading RET diluted in kinase reaction buffer to wells, followed by addition of equal volume of 5× compounds for 15-min incubation at the room temperature for pre-treatment. The enzymatic reaction was initiated by addition of mixture of the substrate and ATP prepared in kinase reaction buffer. After incubation at 28° C. for one hour, 25 μl of stopper buffer (a mixture of 100 mM HEPES pH 7.5 buffer, 0.015% Brij-35, 50 mM EDTA and 0.2% of coating reagent 3 (Cliper Lifesciences)) and produce TR-FRET signals. After 30 minutes of incubation at room temperature, the plate was read in a Caliper with the following settings: Excitation 340 nm (30)/Emission1 495 nm (10)/Emission2 520 nm (25). The TR-FRET values were dimensionless numbers that were calculated as the ratio of the acceptor ([…]) signal to the donor (Terbium) signal. Percent of control was calculated as the percentage of compound-treated vs 1% DMSO vehicle-treated. The dose-response curves were generated and the IC50s were calculated by nonlinear sigmoid curve fitting using XLFit.

[3] = tested on: TT cells; test: TT Cell Proliferation Assay (WST-8, 8 days); assay type: cell-based; conditions: Homo sapiens, TT, 192 h, growth inhibition in TT cells, read-out: TT Cellular Activity
Method: Compounds disclosed herein were tested for the inhibition of RET by a cancer cell proliferation assay commonly known as MTT assay. In this assay, a complete media was prepared by adding 10% fetal bovine serum to RPMI-1640 medium (Life technology). TT cells were added to each of 88 wells of a 96 well plate at a seeding density of 6,000 cells/well/90 μL. The cells were allowed to attach to the plate by incubating at 37° C. for 24 hours. The compound was dissolved in DMSO (SIGMA). A solution of test compound was prepared in complete media by serial dilution to obtain the following concentrations: 50 μM, 15 μM, 5 μM, 1.5 μM, 0.5 μM, 0.15 μM, 0.05 μM, 0.015 μM and 0.005 μM. The test compound solution (10 μL) was added to each of 80 cell-containing wells. The final concentrations of the compound were following: 5 μM, 1.5 μM, 0.5 μM, 0.15 μM, 0.05 μM, 0.015 μM, 0.005 μM, 0.0015 μM and 0.0005 μM. The final concentration of DMSO is 0.5%. To the 8 remaining cell-containing wells, only complete media (containing 0.5% DMSO) was added to form a control group in order to measure maximal proliferation. To the remaining 8 empty wells, complete media was added to for a vehicle control group in order to measure background. The plates were incubated at 37° C. for 8 days. 10 μL WST-8 solution (DOJINDO, Cell Counting KIT-8) was added to each well. The plates were further incubated at 37° C. for 5 hours, and then read for the absorbance using a microplate reader at 450 nm. The IC50 was calculated using GraphPad Prism.

T1 sequence (P07949 29-1114): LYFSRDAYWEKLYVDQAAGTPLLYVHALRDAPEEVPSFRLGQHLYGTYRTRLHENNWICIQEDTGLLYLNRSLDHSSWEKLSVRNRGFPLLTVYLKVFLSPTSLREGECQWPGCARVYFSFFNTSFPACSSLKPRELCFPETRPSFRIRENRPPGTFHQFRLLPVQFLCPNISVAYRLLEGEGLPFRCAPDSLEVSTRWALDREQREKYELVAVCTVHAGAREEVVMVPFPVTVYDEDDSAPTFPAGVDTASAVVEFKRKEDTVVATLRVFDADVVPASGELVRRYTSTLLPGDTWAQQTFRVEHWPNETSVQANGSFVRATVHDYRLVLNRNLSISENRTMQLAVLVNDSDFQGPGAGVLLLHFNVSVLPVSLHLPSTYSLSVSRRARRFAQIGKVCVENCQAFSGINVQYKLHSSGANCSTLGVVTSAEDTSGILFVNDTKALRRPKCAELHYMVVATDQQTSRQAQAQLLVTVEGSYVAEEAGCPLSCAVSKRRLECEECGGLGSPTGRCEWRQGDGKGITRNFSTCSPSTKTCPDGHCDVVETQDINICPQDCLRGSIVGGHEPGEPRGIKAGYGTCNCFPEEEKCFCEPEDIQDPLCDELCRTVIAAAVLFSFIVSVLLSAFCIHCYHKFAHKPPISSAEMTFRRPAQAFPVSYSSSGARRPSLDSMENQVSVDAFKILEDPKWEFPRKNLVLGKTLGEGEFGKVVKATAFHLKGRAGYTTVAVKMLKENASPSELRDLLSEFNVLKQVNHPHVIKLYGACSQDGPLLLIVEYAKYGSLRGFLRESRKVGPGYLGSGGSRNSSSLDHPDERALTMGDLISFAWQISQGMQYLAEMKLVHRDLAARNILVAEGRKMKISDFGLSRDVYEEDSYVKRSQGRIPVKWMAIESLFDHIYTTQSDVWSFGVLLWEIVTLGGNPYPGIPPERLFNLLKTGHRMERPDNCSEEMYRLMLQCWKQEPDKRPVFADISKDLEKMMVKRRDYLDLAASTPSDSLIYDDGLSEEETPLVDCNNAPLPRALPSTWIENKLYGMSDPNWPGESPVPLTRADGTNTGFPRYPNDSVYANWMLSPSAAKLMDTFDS

Compound	IC50 [1] [nM]	IC50 [2] [nM]	IC50 [3] [nM]
CC(C)(O)COc1cc(-c2ccc(N3C4CC5CC3CC(NS(C)(=O)=O)(C5)C4)nc2)c2c(C#N)cnn2c1 [Example 131, N-((1R,3S,5s,7s)-2-(5-(3-cyano-6-(2-hydroxy-2-methylpropoxy)pyrazolo[1,5-a]pyidin-4-yl)pyridin-2-yl)-2-azaadamantan-5-yl)methanesulfonamide]	≤ 10	50 to 100	10 to 50
CC(C)(O)COc1cc(-c2ccc(N3C[C@@H]4[C@H](C3)[C@H]4NC(=O)[C@H](O)c3ccccc3)nc2)c2c(C#N)cnn2c1 [Example 40, (R)-N-((1R,5S,6s)-3-(5-(3-cyano-6-(2-hydroxy-2-methylpropoxy)pyrazolo[1,5-a]pyridin-4-yl)pyridin-2-yl)-3-azabicyclo[3.1.0]hexan-6-yl)-2-hydroxy-2-phenylacetamide]	10 to 50	> 100	50 to 100
CC(C)(O)COc1cc(-c2ccc(N3C[C@@H]4[C@@H](CNC(=O)c5ncccc5Cl)[C@@H]4C3)nc2)c2c(C#N)cnn2c1 [Example 95, 3-chloro-N-(((1R,5S,6s)-3-(5-(3-cyano-6-(2-hydroxy-2-methylpropoxy)pyrazolo[1,5-a]pyridin-4-yl)pyridin-2-yl)-3-azabicyclo[3.1.0]hexan-6-yl)methyl)picolinamide]	≤ 10	> 100	10 to 50
COc1ccc(CN2C[C@@H]3CN(c4ccc(-c5cc(-c6ccn(C)n6)cn6ncc(C#N)c56)cn4)C[C@@H]3C2)cn1 [Example 13, 4-(6-((3aR,6aS)-5-((6-methoxypyridin-3-yl)methyl)hexahydropyrrolo[3,4-c]pyrrol-2(1H)-yl)pyridin-3-yl)-6-(1-methyl-1H-pyrazol-3-yl)pyrazolo[1,5-a]pyridine-3-carbonitrile]	≤ 10	10 to 50	10 to 50
CCOc1cc(-c2ccc(N3C[C@@H]4C[C@@](C)(NC(=O)c5ncccc5C(F)(F)F)C[C@@H]4C3)nc2)c2c(C#N)cnn2c1 [Example 65, N-((3aR,5s,6aS)-2-(5-(3-cyano-6-ethoxypyrazolo[1,5-a]pyridin-4-yl)pyridin-2-yl)-5-methyloctahydrocyclopenta[c]pyrrol-5-yl)-3-(trifluoromethyl)picolinamide]	≤ 10	50 to 100	10 to 50
CCOc1cc(-c2ccc(N3C[C@@H]4C[C@@](C)(NC(=O)c5cc(F)ccc5Cl)C[C@@H]4C3)nc2)c2c(C#N)cnn2c1 [Example 68, 2-chloro-N-((3aR,5s,6aS)-2-(5-(3-cyano-6-ethoxypyrazolo[1,5-a]pyridin-4-yl)pyridin-2-yl)-5-methyloctahydrocyclopenta[c]pyrrol-5-yl)-5-fluorobenzamide]	≤ 10	50 to 100	10 to 50

Continued, in another order:

IC50 [1] [nM]	IC50 [2] [nM]	Compound	IC50 [3] [nM]
50 to 100	> 100	COc1cc(-c2ccc(N3C[C@@H]4[C@H](C3)[C@H]4NC(=O)c3ncccc3Cl)nc2)c2c(C#N)cnn2c1 [Example 39, 3-chloro-N-((1R,5S,6s)-3-(5-(3-cyano-6-methoxypyrazolo[1,5-a]pyridin-4-yl)pyridin-2-yl)-3-azabicyclo[3.1.0]hexan-6-yl)picolinamide]	> 100
≤ 10	10 to 50	COc1ccc(C(=O)N2C[C@@H]3CN(c4ccc(-c5cc(-c6cnn(C)c6)cn6ncc(C#N)c56)cn4)C[C@@H]3C2)cn1 [Example 1, 4-(6-((3aR,6aS)-5-(6-methoxynicotinoyl)hexahydropyrrolo[3,4-c]pyrrol-2(1H)-yl)pyridin-3-yl)-6-(1-methyl-1H-pyrazol-4-yl)pyrazolo[1,5-a]pyridine-3-carbonitrile]	10 to 50
≤ 10	≤ 10	Cn1cc(-c2cc(-c3ccc(N4C[C@@H]5[C@H](C4)[C@@H]5NC(=O)Nc4ccccc4)nc3)c3c(C#N)cnn3c2)cn1 [Example 36, 1-((1R,5S,6r)-3-(5-(3-cyano-6-(1-methyl-1H-pyrazol-4-yl)pyrazolo[1,5-a]pyridin-4-yl)pyridin-2-yl)-3-azabicyclo[3.1.0]hexan-6-yl)-3-phenylurea]	10 to 50
≤ 10	10 to 50	CC(C)CC(=O)NC[C@@H]1[C@H]2CN(c3ccc(-c4cc(-c5cnn(C)c5)cn5ncc(C#N)c45)cn3)C[C@@H]12 [Example 88, N-(((1R,5S,6s)-3-(5-(3-cyano-6-(1-methyl-1H-pyrazol-4-yl)pyrazolo[1,5-a]pyridin-4-yl)pyridin-2-yl)-3-azabicyclo[3.1.0]hexan-6-yl)methyl)-3-methylbutanamide]	≤ 10
≤ 10	≤ 10	Cc1cccc(Cl)c1C(=O)NC[C@@H]1[C@H]2CN(c3ccc(-c4cc(-c5cnn(C)c5)cn5ncc(C#N)c45)cn3)C[C@@H]12 [Example 185, 2-chloro-N-(((1R,5S,6s)-3-(5-(3-cyano-6-(1-methyl-1H-pyrazol-4-yl)pyrazolo[1,5-a]pyridin-4-yl)pyridin-2-yl)-3-azabicyclo[3.1.0]hexan-6-yl)methyl)-6-methylbenzamide]	10 to 50
≤ 10	≤ 10	Cc1cccc(Cl)c1C(=O)N[C@H]1[C@@H]2CN(c3ccc(-c4cc(-c5cnn(C)c5)cn5ncc(C#N)c45)cn3)C[C@@H]21 [Example 23, 2-chloro-N-((1R,5S,6s)-3-(5-(3-cyano-6-(1-methyl-1H-pyrazol-4-yl)pyrazolo[1,5-a]pyridin-4-yl)pyridin-2-yl)-3-azabicyclo[3.1.0]hexan-6-yl)-6-methylbenzamide]	≤ 10
≤ 10	10 to 50	Cn1cc(-c2cc(-c3ccc(N4C[C@@H]5[C@@H](CNC(=O)C(C)(C)C)[C@@H]5C4)nc3)c3c(C#N)cnn3c2)cn1 [Example 87, N-(((1R,5S,6s)-3-(5-(3-cyano-6-(1-methyl-1H-pyrazol-4-yl)pyrazolo[1,5-a]pyridin-4-yl)pyridin-2-yl)-3-azabicyclo[3.1.0]hexan-6-yl)methyl)pivalamid]	≤ 10
≤ 10	10 to 50	CC(C)C(=O)N[C@H]1[C@@H]2CN(c3ccc(-c4cc(-c5cnn(C)c5)cn5ncc(C#N)c45)cn3)C[C@@H]21 [Example 31, N-((1R,5 S,6s)-3-(5-(3-cyano-6-(1-methyl-1H-pyrazol-4-yl)pyrazolo[1,5-a]pyridin-4-yl)pyridin-2-yl)-3-azabicyclo[3.1.0]hexan-6-yl)isobutyramide]	50 to 100
